Data reported in patent publication US20260042754A1, “Substituted Bicyclic Heteroaryl Sulfonamide Derivatives for the Treatment of Cancer” (NODUS ONCOLOGY LIMITED, priority 2022, published 2026).

Columns and labels:
[1] = target: human PARG (PARG-NanoLuc fusion in HEK293T cells) (Homo sapiens (Human), UniProt Q86W56); test: PARG NanoBRET-based cellular target engagement assay; type: cell-based; conditions: HEK293T cells transfected with PARG-NanoLuc, NanoBRET probe 0.89 μM, 2 hours; read-out: PARG TE IC50
Method: PARG Nano-luciferase construct: The PARG-NanoLuc® fusion vector was generated by Promega, by inserting the full length human PARG cDNA sequence encoding the 976 amino acid protein (Gene ID: 8505, UniProt: Q86W56) into the pNLF1-C [CMV/Hygro] vector (C-terminal fusions with NanoLuc® enzyme).
PARG target engagement tracer synthesis: The NanoBRET tracer for PARG was prepared following a previously reported general tracer synthesis procedure.
PARG Probe Displacement Assay Using NanoBRET: HEK293T (DSMZ #ACC 635) cells transiently transfected with the PARG-NanoLuc fusion construct were resuspended in phenol red-free OptiMEM (Gibco #11058-021) to a concentration of 2.4×10^5 cells/mL. 9 μL per well were then added to a white 384-well low volume microplate (Greiner #784080) and incubated for 24 hours under standard growth conditions.
Then compound was dispensed into each well using an Echo dispenser (BeckmanCoulter) to yield the pre-specified final concentration of the range of concentrations to be tested (typically 8-point serial concentrations ranging from either from 0.01 to 10 μM, or from 0.001 to 1 μM, or from 0.0001 to 0.1 μM), and being volume-corrected with 100% DMSO (0.5% final DMSO concentration in reaction mixtures).
After mixing and an incubation at room temperature for 15 min 1 μl of the NanoBRET probe (at 0.89 μM final concentration) was added to the microplate using a multichannel pipette. The plate was mixed and incubated in a 5% CO2 environment at 37° C. for 2 hours, and then 5 μL per well of a solution consisting of a 1:31.25 dilution of Nano-Glo substrate (Promega) and a 1:500 dilution of NanoLuc extracellular inhibitor (Promega) in phenol red-free OptiMEM was added to each well followed by another mixing step. Filtered luminescence was measured on an EnVision plate reader (PerkinElmer) equipped with a 460 nm filter (donor) and a 645 nm filter (acceptor). BRET ratios were plotted as concentration-response curves fitted to a sigmoidal 4-parameter logistic model to calculate IC50 values (Scigilian Analyze).

[2] = target: Recombinant His-tagged human PARG protein (Homo sapiens (Human), UniProt Q86W56); test: PARG enzymatic assay (TFMU-ADPr fluorescence); type: biochemical; conditions: 1 nM enzyme, 200 μM TFMU-ADPr, read after 30 minutes
Method: Inhibition of PARG enzymatic activity by compounds was determined as follows: Recombinant His-tagged human PARG protein expressed in Sf21 insect cells (Adipogen AG, #40T-0022) was aliquoted and stored at −80° C. until use. The artificial enzyme substrate 4-(trifluoromethyl)umbelliferone (TFMU)-ADPr was prepared essentially as described (Drown B S et al, Cell Chemical Biology 2018) and stored at −20° C. as 10 mM stock solutions in DMSO (dimethyl sulfoxide) until use. For reactions, typical final concentration of the enzyme was 1 nM and of the TFMU-ADPr 200 μM. Reactions were carried out in black 384-well low volume round bottom assay plates (Corning, #4514) in a final volume of 10 μL. To this end, PARG was diluted to 1.67 nM in reaction buffer (50 mM K2HPO4, 50 mM KCl, 10 mM β-mercaptoethanol, pH 7.4) and 6 μL were dispensed per assay well using a multichannel pipette. Then compound was dispensed into each well using an Echo dispenser (BeckmanCoulter) to yield the pre-specified final concentration of the range of concentrations to be tested (typically 8-point serial concentrations ranging from either from 0.01 to 10 μM, or from 0.001 to 1 μM, or from 0.0001 to 0.1 μM), and being volume-corrected with 100% DMSO (0.5% final DMSO concentration in reaction mixtures). Plates were mixed, and after 15 minutes 4 μL TFMU-ADPr was added into each well using a multichannel pipette followed by brief mixing. Fluorescence intensity signals were then measured after 30 minutes on an EnVision microplate reader (PerkinElmer) using 380/10 nm and 535/25 nm filters for the excitation and emission, respectively (gain: 150). The assay window was set using DMSO control (top) and a control containing no PARG enzyme (bottom). Delta values were plotted as concentration-response curves fitted to a sigmoidal 4-parameter logistic model to calculate IC50 values (Scigilian Analyze).

[3] = tested on: NCI-H1650; test: Modified cell proliferation assay (CellTiter-Glo), NCI-H1650; type: cell-based; conditions: Homo sapiens, NCI-H1650; modified protocol, 384-well, 300 cells per well, 120 h; highest concentration tested 30000 nM; read-out: NCI-H1650 GI50 (high PARG dependency)
Method: The cell proliferation assay protocol was modified and used for RMUG-S for Examples 12-44, and subsequently used to test Examples 1-44 in the NCI-H1650 cell line.
NCI-H1650 (ATCC, #CRL-5883) or RMUG-S were seeded on day 1 at 300 cells per well in a 384-well plate (Greiner, #781080) that assure assay linearity and optimal signal intensity in 25 μL of RPMI1640 media (Pan Biotech, #P04-22100) containing 10% FCS (Capricorn, #FBS-11A; Lot. CP22-5141) and 1% Glutamine (Pan Biotech, #P04-80100). After incubation for 24 h in humidified chambers at 37° C./5% CO2, compounds/DMSO were dispensed at different concentrations using an Echo 520 (Beckman Coulter). Cells were further incubated for 120 h at 37° C. and 5% CO2. Cells treated with the compound vehicle DMSO were used as negative controls and cells treated with 10 μM Staurosporine (LC Laboratories, #S-9300) served as positive controls.
At day 6 the CellTiter Glo Reagent was prepared according to the instructions of the kit (Promega Inc.): Reagent was mixed 1:1 with cell culture medium. Thereon, mixture and assay plates were equilibrated at room temperature for 20 min. Equal volumes of the reagent-medium-mixture were added to the volume of culture medium present in each well. The plates were mixed at […] for 2 minutes on an orbital shaker (Timix5, Edmund Buehler GmbH). The microplates were then incubated at room temperature for 10 minutes for stabilization of the luminescent signal. Following incubation, the luminescence was recorded on a Victor X5 microplate reader (Perkin Elmer) using a 200 ms integration time. The data was then analyzed with Excel using the XLFIT Plugin (dose response Fit 205) for determination of the concentration necessary for half-maximal inhibition (i.e. the inflection point of the fitted curve).
As quality control the Z′-factor was calculated from 16 positive and negative control values. Only assay results showing a Z′-factor≥0.5 were used for further analysis.

Sequence of Recombinant His-tagged human PARG protein (Q86W56 whole entry): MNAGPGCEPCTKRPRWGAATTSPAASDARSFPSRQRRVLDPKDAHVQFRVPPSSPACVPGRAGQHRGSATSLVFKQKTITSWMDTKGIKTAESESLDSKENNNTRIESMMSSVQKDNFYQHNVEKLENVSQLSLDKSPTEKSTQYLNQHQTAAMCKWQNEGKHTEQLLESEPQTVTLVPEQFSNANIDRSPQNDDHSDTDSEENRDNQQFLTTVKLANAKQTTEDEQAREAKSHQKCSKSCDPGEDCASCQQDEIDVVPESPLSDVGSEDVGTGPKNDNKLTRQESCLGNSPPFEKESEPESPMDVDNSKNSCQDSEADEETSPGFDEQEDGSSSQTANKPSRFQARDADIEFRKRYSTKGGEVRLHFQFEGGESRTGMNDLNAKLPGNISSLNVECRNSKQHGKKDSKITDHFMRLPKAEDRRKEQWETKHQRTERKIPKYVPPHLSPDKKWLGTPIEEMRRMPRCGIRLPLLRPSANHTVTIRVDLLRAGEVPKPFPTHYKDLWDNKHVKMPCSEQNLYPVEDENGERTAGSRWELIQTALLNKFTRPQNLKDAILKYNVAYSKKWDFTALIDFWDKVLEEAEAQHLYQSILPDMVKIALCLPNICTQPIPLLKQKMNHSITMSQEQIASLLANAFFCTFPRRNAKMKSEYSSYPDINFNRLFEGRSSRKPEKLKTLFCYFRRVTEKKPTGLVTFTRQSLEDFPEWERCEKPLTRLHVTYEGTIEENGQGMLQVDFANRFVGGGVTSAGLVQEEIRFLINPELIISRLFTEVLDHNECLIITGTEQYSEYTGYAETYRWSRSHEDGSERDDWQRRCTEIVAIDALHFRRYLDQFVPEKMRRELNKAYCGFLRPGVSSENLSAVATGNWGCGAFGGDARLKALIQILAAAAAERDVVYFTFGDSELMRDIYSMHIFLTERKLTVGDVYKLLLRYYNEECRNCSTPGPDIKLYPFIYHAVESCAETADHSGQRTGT
Sequence of human PARG (PARG-NanoLuc fusion in HEK293T cells) (Q86W56 whole entry, the tested form may be a part): as the sequence (Q86W56 whole entry) above

Row | SMILES | IC50 [1] [nM] | IC50 [2] [nM] | GI50 [3] [nM]
1 | CO/N=c1\[nH]c2c(-c3ccc(CN)cc3)cc(S(=O)(=O)NC3(C)CC3)cc2c(=O)n1Cc1cnn(C)c1 [Example 17, (E)-8-(4-(aminomethyl)phenyl)-2-(methoxyimino)-3-((1-methyl-1H-pyrazol-4-yl)methyl)-N-(1-methylcyclopropyl)-4-oxo-1,2,3,4-tetrahydroquinazoline-6-sulfonamide] | 100 to 1000 | 30 to 99 | > 2000
2 | CO/N=c1\[nH]c2c(-c3ccc(C(N)=O)cc3)cc(S(=O)(=O)NC3(C)CC3)cc2c(=O)n1Cc1cnn(C)c1 [Example 15, (E)-4-(2-(methoxyimino)-3-((1-methyl-1H-pyrazol-4-yl)methyl)-6-(N-(1-methylcyclopropyl)sulfamoyl)-4-oxo-1,2,3,4-tetrahydroquinazolin-8-yl)benzamide] | 30 to 99 | < 30 | > 2000
3 | CO/N=c1\[nH]c2c(N3CCN(C(C)=O)[C@H](C)C3)cc(S(=O)(=O)NC3(C)CC3)cc2c(=O)n1Cc1cnn(C)c1 [Example 12, (2E)-2-methoxyimino-N-(1-methylcyclopropyl)-3-[(1-methylpyrazol-4-yl)methyl]-4-oxo-8-[(3R)-4-acetyl-3-methyl-piperazin-1-yl]-1H-quinazoline-6-sulfonamide] | < 30 | < 30 | < 500
4 | CO/N=c1\[nH]c2ccc(S(=O)(=O)NC3(C)CC3)cc2c(=O)n1Cc1cnn(C(F)(F)F)c1 [Example 6, 2-methoxyimino-N-(1-methylcyclopropyl)-4-oxo-3-[[1-(trifluoromethyl)pyrazol-4-yl]methyl]-1H-quinazoline-6-sulfonamide] | 100 to 1000 | 100 to 1000 | –
5 | CO/N=c1\[nH]c2c(-c3ccc(C4(O)CCC4=O)cc3)cc(S(=O)(=O)NC3(C)CC3)cc2c(=O)n1Cc1cnn(C)c1 (stereo not shown) [Example 22, (E)-8-(4-(1-hydroxy-2-oxocyclobutyl)phenyl)-2-(methoxyimino)-3-((1-methyl-1H-pyrazol-4-yl)methyl)-N-(1-methylcyclopropyl)-4-oxo-1,2,3,4-tetrahydroquinazoline-6-sulfonamide] | 30 to 99 | < 30 | –
6 | CC(C)O/N=c1\[nH]c2ccc(S(=O)(=O)NC3(C)CC3)cc2c(=O)n1Cc1cnn(C)c1 [Example 11, 2-isopropoxyimino-N-(1-methylcyclopropyl)-3-[(1-methylpyrazol-4-yl)methyl]-4-oxo-1H-quinazoline-6-sulfonamide] | 30 to 99 | < 30 | –

Continued, values first:

Row | IC50 [1] [nM] | IC50 [2] [nM] | GI50 [3] [nM] | SMILES
7 | < 30 | < 30 | < 500 | CO/N=c1\[nH]c2c(N3CCN(C(=O)N4CCCC4)[C@H](C)C3)cc(S(=O)(=O)NC3(C)CC3)cc2c(=O)n1Cc1cnn(C)c1 [Example 40, (R,E)-2-(methoxyimino)-3-((1-methyl-1H-pyrazol-4-yl)methyl)-8-(3-methyl-4-(pyrrolidine-1-carbonyl)piperazin-1-yl)-N-(1-methylcyclopropyl)-4-oxo-1,2,3,4-tetrahydroquinazoline-6-sulfonamide]
8 | < 30 | < 30 | < 500 | CO/N=c1\[nH]c2c(N3CCN(C(=O)CC(F)(F)F)[C@H](C)C3)cc(S(=O)(=O)NC3(C)CC3)cc2c(=O)n1Cc1cnn(C)c1 [Example 31, (R,E)-2-(methoxyimino)-3-((1-methyl-1H-pyrazol-4-yl)methyl)-8-(3-methyl-4-(3,3,3-trifluoropropanoyl)piperazin-1-yl)-N-(1-methylcyclopropyl)-4-oxo-1,2,3,4-tetrahydroquinazoline-6-sulfonamide]
9 | < 30 | < 30 | – | CO/N=c1\[nH]c2c(N3CCN(C(=O)N(C)C4CC4)[C@H](C)C3)cc(S(=O)(=O)NC3(C)CC3)cc2c(=O)n1Cc1cnn(C)c1 (single isomer, unassigned) [Example 44]
10 | – | – | < 500 | CO/N=c1\[nH]c2c(N3CCN(C(=O)C4(C(F)(F)F)CC4)[C@H](C)C3)cc(S(=O)(=O)NC3(C)CC3)cc2c(=O)n1Cc1cnn(C)c1 [Example 32, (R,E)-2-(methoxyimino)-3-((1-methyl-1H-pyrazol-4-yl)methyl)-8-(3-methyl-4-(1-(trifluoromethyl)cyclopropane-1-carbonyl)piperazin-1-yl)-N-(1-methylcyclopropyl)-4-oxo-1,2,3,4-tetrahydroquinazoline-6-sulfonamide]
11 | < 30 | < 30 | – | CO/N=c1\[nH]c2c(N3CCN(C(=O)C(F)(F)F)[C@H](C)C3)cc(S(=O)(=O)NC3(C)CC3)cc2c(=O)n1Cc1cnn(C)c1 [Example 42, (R,E)-2-(methoxyimino)-3-((1-methyl-1H-pyrazol-4-yl)methyl)-8-(3-methyl-4-(2,2,2-trifluoroacetyl)piperazin-1-yl)-N-(1-methylcyclopropyl)-4-oxo-1,2,3,4-tetrahydroquinazoline-6-sulfonamide]
12 | < 30 | < 30 | – | CO/N=c1\[nH]c2c(N3CCN(C(=O)C(F)(F)C4(O)CCC4)[C@H](C)C3)cc(S(=O)(=O)NC3(C)CC3)cc2c(=O)n1Cc1cnn(C)c1 (single isomer, unassigned) [Example 43]
